The source of these data is patent US7148211B2, “Formulation for lipophilic agents” (Genzyme Corporation, priority 2002, dated 2006).

Structures are written as SMILES.

For data set [1], the system named is patients with advanced androgen-independent prostate cancer. As to the kind of experiment: Open-labeled clinical study of 1α,24-(OH)2D2 in advanced androgen-independent prostate cancer. Type of data set: in vivo. Particulars: for progression of metastatic disease (CAT scans, X-rays, bone scans): second phase, after one and two years. From the text: (§1) Patients with advanced androgen-independent prostate cancer participate in an open-labeled study of 1α,24-(OH)2D2. […] On admission to the study, patients begin a course of therapy with intravenous 1α,24-(OH)2D2 lasting 26 weeks, while discontinuing any previous use of calcium supplements, vitamin D supplements, and vitamin D hormone replacement therapies. During treatment, the patients are monitored at regular intervals for: (1) hypercalcemia, hyperphosphatemia, hypercalciuria, hyperphosphaturia and other toxicity; (2) evidence of changes in the progression of metastatic disease; and (3) compliance with the prescribed test drug dosage.
(§2) The study is conducted in two phases. During the first phase, the maximal tolerated dosage (MTD) of daily 1α,24-(OH)2D2 is determined by administering progressively higher dosages to successive groups of patients. All doses are administered in the morning before breakfast. The first group of patients is treated with 25.0 μg of 1α,24-(OH)2D2 (formulated with 2.5% w/w benzyl alcohol, 0.5%–2.5% w/w TWEEN™-20, and 20 ppm BHT). Subsequent groups of patients are treated with 50.0, 75.0 and 100.0 μg/day. Dosing is continued uninterrupted for the duration of the study unless serum calcium exceeds 11.6 mg/dL, or other toxicity of grade 3 or 4 is observed, in which case dosing is held in abeyance until resolution of the observed toxic effect(s) and then resumed at a level which has been decreased by 10.0 μg.
(§3) During the second phase, patients are treated with 1α,24-(OH)2D2 for 24 months at 0.5 and 1.0 times the MTD.

Data set [2] has the same test system. The data set can be described thus: Study of Example 7 repeated for 1α-(OH)D2 in prostate cancer. The conditions noted are these: for progression of metastatic disease (CAT scans, X-rays, bone scans): phase two, after two years. Type of data set: in vivo, human.
Description: as §1, §2, §3
The study of Example 7 is repeated for the active vitamin D compound, 1α-(OH)D2 (formulated with 2.5% w/w benzyl alcohol, 0.5%–2.5% w/w TWEEN™-20, and 20 ppm BHT). […] In summary, the present invention provides an improved formulation for lipophilic drug agents that are only slightly soluble in an aqueous vehicle. The formulation in addition to the lipophilic drug agent includes a lipophilic antioxidant, a non-ionic solubilizer or surfactant, and optionally, an agent which is an organic solvent/ preservative.

Data set [3] concerns elderly subjects with secondary hyperparathyroidism. The data set can be described thus: Open label study of elderly subjects with elevated blood PTH from secondary hyperparathyroidism. Type of data set: in vivo, human. Particulars: oral 2.5 μg/day, twelve weeks. How it is done: Thirty elderly subjects with secondary hyperparathyroidism are enrolled in an open label study. The selected subjects have ages between 60 and 100 years and have elevated serum PTH levels (greater than the upper limit of young normal range). Subjects also have femoral neck osteopenia (femoral neck bone mineral density of […]).
Subjects are requested to keep a diet providing approximately 500 mg calcium per day without the use of calcium supplements. For a twelve week treatment period, subjects self-administer orally 2.5 μg/day 1α-OH-vitamin D2.(i.e., 2.5 μg doxercalciferol, 2.5% w/w benzyl alcohol, 0.5%–2.5% w/w TWEEN™-20, and 20 ppm BHT) At regular intervals throughout the treatment period, subjects are monitored for serum PTH levels, serum calcium and phosphorus, and urine calcium and phosphorus levels. Efficacy is evaluated by pre- and post-treatment comparisons of serum PTH levels. Safety is evaluated by serum and urine calcium and phosphorus values.

For data set [4], the system named is End Stage Renal Disease patients with secondary hyperparathyroidism. As to the kind of experiment: Double-blind placebo-controlled study in ESRD hemodialysis patients exhibiting secondary hyperparathyroidism. Type of data set: in vivo, human. The text has this: Up to 120 ESRD (End Stage Renal Disease) patients undergoing chronic hemodialysis are studied in a multicenter, double-blind, placebo-controlled study based in two major U.S. metropolitan areas. The selected patients reside in two major metropolitan areas within the continental U.S., have ages between 20 and 75 years and have a history of secondary hyperparathyroidism. They have been on hemodialysis for at least four months, have a normal (or near normal) serum albumin, and have controlled serum phosphorus (often by using oral calcium phosphate binders).
On admission to the study, each patient is assigned at random to one of two treatment groups. One of these groups receives two consecutive 12-week courses of therapy with 1α-OH-vitamin D2 (doxercalciferol); the other receives a 12-week course of therapy with 1α-OH-vitamin D2 followed, without interruption, by a 12-week course of placebo therapy. Each patient discontinues any 1, α,25-(OH)2-vitamin D3 therapy for eight weeks prior to initiating 1α-OH-vitamin D2 therapy (daily dose of 4 μg doxercalciferol, formulated with 2.5% w/w benzyl alcohol, 0.5%–2.5% w/w TWEEN™-20, and 20 ppm BHT). Throughout this eight-week washout (or control) period and the two subsequent 12-week treatment periods, patients are monitored weekly for serum calcium and phosphorus. Serum intact PTH is monitored weekly or biweekly, and bone-specific serum markers, serum vitamin D metabolites, serum albumin, blood chemistries, hemoglobin and hematocrit are monitored at selected intervals.
During the study, patients undergo routine hemodialysis (three times per week) using a 1.24 mM calcium dialysate and ingest calcium phosphate binders (such as calcium carbonate or calcium acetate) in an amount sufficient to keep serum phosphate controlled (6.9 mg/dL). Patients who develop persistent mild hypercalcemia or mild hyperphosphatemia during the treatment periods reduce their 1α-OH-vitamin D2 to 4 μg three times per week (or lower). Patients who develop marked hypercalcemia or marked hyperphosphatemia immediately suspend treatment. Such patients are monitored at twice weekly intervals until the serum calcium or phosphorus is normalized, and resume 1α-OH-vitamin D2 dosing at a rate which is 4 μg three times per week (or lower).

The mark [5] stands for this setting: treated with the MTD for at least six months.

As to `C=C1/C(=C\C=C2/CCC[C@]3(C)[C@@H]([C@H](C)/C=C/C(C)(O)C(C)C)CC[C@@H]23)C[C@H](O)C[C@H]1O` (stereo partly drawn) [1α,24-(OH)2D2, 1α,24-dihydroxyvitamin D2], in data set [1] (blood samples of patients treated with 1α,24-(OH)2D2), the “circulating levels of 1α,25-(OH)2D2” value is “suppressed, often to undetectable levels”. Also, in data set [1] (human, in vivo), the “dose dependence of levels of circulating 1α,24-(OH)2D2” value is “increase proportionately with the dosage administered”; the “maximum levels of circulating 1α,24-(OH)2D2” value is recorded as “above 100 pg/mL”; the “serum and urine calcium” value was “elevated in a dose responsive manner”. In addition, the “progression of metastatic disease (CAT scans, X-rays, bone scans)” value (from here on “progression of metastatic disease”) in data set [1] (higher dosage (1.0 times the MTD)) was “stable disease and partial or complete remission in many patients”. For the same compound, in data set [1] (lower dosage (0.5 times the MTD)), the “progression of metastatic disease” value was “stable disease or partial remission in many patients”. Moreover, the “bone pain associated with metastatic disease” value in data set [1] (setting [5]) is reported as “significantly diminished”.
For the compound `C=C1/C(=C\C=C2/CCC[C@]3(C)[C@@H]([C@H](C)/C=C/[C@H](C)C(C)C)CC[C@@H]23)C[C@@H](O)C[C@@H]1O` [1α-OH-vitamin D2, 1α-hydroxyvitamin D2], the “progression of metastatic disease” value in data set [2] (higher dosage) is “stable disease and partial or complete remission in many patients”. The “progression of metastatic disease” value in data set [2] (lower dosage) is “stable disease or partial remission in many patients”. The “bone pain associated with metastatic disease” value in data set [2] (setting [5]) is “significantly diminished”. Further, in data set [3], the “PTH levels, pre- and post-treatment comparison” value is “significantly reduce PTH levels”; the “incidence of hypercalcemia, hyperphosphatemia, hypercalciuria and hyperphosphaturia” value is given as “insignificant incidence”. Further, the “reduction of serum PTH levels (study conclusion)” value in data set [4] (ESRD patients) is listed as “effective in reducing serum PTH levels”. Also, the “mean serum PTH after initiation of dosing” value in data set [4] (ESRD patients, daily dose of 4 μg doxercalciferol formulated with benzyl alcohol, TWEEN-20, BHT) is recorded as “less than 50 % of pretreatment levels”. The “safety compared with currently used therapies (study conclusion)” value in data set [4] (despite higher dosages and concurrent high levels of oral calcium phosphate binder) is recorded as “safer than currently used therapies”. In addition, the “serum levels of calcium and phosphorus” value in data set [4] (end of first 12-week treatment period, for end stage renal disease patients) was “normal or near normal”. For the same compound, the hypercalcemia entry in data set [4] (patients exhibiting excessive suppression of serum PTH, corrected by dosage reduction) was “transient mild hypercalcemia is observed”.
